Measurements reported in patent publication US20150258059A1, “ANTIMICROBIAL AND RADIOPROTECTIVE COMPOUNDS” (BioDiem, Ltd, priority 2001, published 2015).
Converted amounts (≈) assume the structure as drawn. Read-outs that look alike come from different tables or passages of the source. Marks after values point to notes of the source that are not given here.

Experiments:
[1] = tested on: γ-hemolytic streptococcus B-672; assay: Sensitivity of strains: suppression of growth; type: cell-based; details: Compound (1) 1.0%; antibiotics disc method
[2] = tested on: Torula histolytica (Cryptococcus); assay: Sensitivity of pathogenic fungi; type: cell-based; details: Inoculation 10^5
Bacillus subtilis = assay: Stability of stock solutions on storage, potency by MIC/MBC; type: cell-based
[3] = tested on: Aspergillus fumigatus asexual exospores; assay: Sporicidal activity; type: cell-based; details: 512 μg/mL in water+Tween-20; 24 hrs and 6 hrs
Protocol: Aspergillus fumigatus asexual exospores
Compound (1) in water+Tween-20® was tested for sporicidal activity up to 24 hrs.

Salmonella typhimurium = assay: NCCLS broth microdilution MIC/MBC; type: cell-based
Candida albicans [4] = assay: Rate of kill, viable counts
[5] = tested on: Conditional pathogenic enterobacteria gram-negative aerobic bacilli; type: cell-based; note: key: + sensitive strains; + moderately sensitive strains; − stable strains
Candida albicans [6] = assay: microbe, parasite or virus in culture; type: cell-based; details: for MIC: Candida albicans
Candida albicans [7] = assay: Impregnated agar serial double dilutions; details: meat peptone agar
F. chlamydosporum = assay: M38-P microdilution MIC/MFC; type: cell-based; details: Table 16, 48 h, 35° C.
[8] = tested on: Neisseria meningitidis M-A72; assay: Sensitivity of strains: suppression of growth; type: cell-based; details: Compound (1) 1.0%; antibiotics disc method
Aspergillus fumigatus = assay: microbe, parasite or virus in culture; type: cell-based; details: for MIC: Aspergillus fumigatus
[9] = tested on: Klebsiella pneumoniae M-A21; assay: Sensitivity of strains: suppression of growth; type: cell-based; details: Compound (1) 1.0%; antibiotics disc method
Enterococcus faecalis = assay: Rate of kill, viable counts; details: 512 μg/mL; at 9 h
Fusarium graminearum = assay: microbe, parasite or virus in culture; type: cell-based; details: 48 h
[10] = tested on: E. faecalis-clinical isolate 1; assay: microbe, parasite or virus in culture; type: cell-based
[11] = tested on: Staphylococcus aureus M-209; assay: Sensitivity of strains: suppression of growth; type: cell-based; details: Compound (1) 1.0%; antibiotics disc method
Trichophyton rubrum = assay: NCCLS broth macro-dilution MIC/MFC (RPMI); type: cell-based; details: Table 10, 7 day, 30° C.
Pseudoallescheria boydii = assay: M38-P microdilution MIC/MFC; type: cell-based; details: Table 16, Dematiaceous fungi
Acinetobacter B-681 = assay: Agar diffusion assay
Shigella sonnei B-720 = assay: Sensitivity of strains: suppression of growth; type: cell-based; details: Compound (1) 1.0%; antibiotics disc method
Geotrichum M-158 = assay: Sensitivity of pathogenic fungi; type: cell-based; details: Inoculation 10^5
Proteus vulgaris = assay: microbe, parasite or virus in culture; type: cell-based; details: for MIC: Proteus vulgaris
[12] = tested on: Pseudomonas aeruginosa ATCC 27853; assay: NCCLS broth microdilution MIC/MBC; type: cell-based; details: for MIC: Pseudomonas aeruginosa, ATCC27853, read-out: MIC
[13] = stock 512 μg/mL stored 4° C., 0 weeks
[14] = stock 512 μg/mL stored 4° C., 2 weeks
[15] = stock 512 μg/mL stored 4° C., 4 weeks
[16] = stock 512 μg/mL stored 4° C., 6 weeks
[17] = stock 512 μg/mL stored 4° C., 8 weeks
[18] = stock 512 μg/mL stored 4° C., 10 weeks
[19] = stock 512 μg/mL stored 4° C., 12 weeks
[20] = stock 512 μg/mL stored RT, 0 weeks
[21] = stock 512 μg/mL stored RT, 2 weeks
[22] = stock 512 μg/mL stored RT, 4 weeks
[23] = stock 512 μg/mL stored RT, 6 weeks
[24] = stock 512 μg/mL stored RT, 8 weeks
[25] = stock 512 μg/mL stored RT, 10 weeks
[26] = stock 512 μg/mL stored RT, 12 weeks
[27] = stock 512 μg/mL stored −20° C., 0 weeks
[28] = stock 512 μg/mL stored −20° C., 2 weeks
[29] = stock 512 μg/mL stored −20° C., 4 weeks
[30] = stock 512 μg/mL stored −20° C., 6 weeks
[31] = stock 512 μg/mL stored −20° C., 8 weeks
[32] = stock 512 μg/mL stored −20° C., 10 weeks
[33] = stock 512 μg/mL stored −20° C., 12 weeks
[34] = after 12 weeks continuous exposure, read-out: Standard MIC Final
[35] = before exposure, MHB, read-out: Standard MIC Initial
[36] = Range to Week 12, No Rising Trend

With `C/C(=C\c1ccc2c(c1)OCO2)[N+](=O)[O-]` [Compound (1)] the “Suppression of Growth (+/−)” value [1] was “+”, the “Number of microbes: Growth” value ([2]; 0.1%) was 0 and the “Number of microbes: Retardation” value ([2]; 0.1%) was 10^5. For the same compound, the “Number of microbes: Growth” value ([2]; 0.5%) was 0, the “Number of microbes: Retardation” value ([2]; 0.5%) was 10^5 and the “Number of microbes: Growth” value ([2]; 2.0%) was 0. The “Number of microbes: Retardation” value ([2]; 2.0%) was 10^5, the “stability of dilute solutions on storage” value (Bacillus subtilis; 12 weeks at 4° C. and −20° C.) was “very stable” and the MBC (Bacillus subtilis; [13]) was 8 µg/mL (≈ 38.6 µM). The MIC (Bacillus subtilis; [13]) was 4 µg/mL (≈ 19.3 µM), the MBC (Bacillus subtilis; [14]) was 8 µg/mL (≈ 38.6 µM) and the MIC (Bacillus subtilis; [14]) was 4 µg/mL (≈ 19.3 µM). The MBC (Bacillus subtilis; [15]) was 16 µg/mL (≈ 77.2 µM), the MIC (Bacillus subtilis; [15]) was 4 µg/mL (≈ 19.3 µM) and the MBC (Bacillus subtilis; [16]) was 16 µg/mL (≈ 77.2 µM). It also gave an MIC (Bacillus subtilis; [16]) of 4 µg/mL (≈ 19.3 µM), an MBC (Bacillus subtilis; [17]) of 16 µg/mL (≈ 77.2 µM) and an MIC (Bacillus subtilis; [17]) of 4 µg/mL (≈ 19.3 µM). It also gave an MBC (Bacillus subtilis; [18]) of 16 µg/mL (≈ 77.2 µM), an MIC (Bacillus subtilis; [18]) of 4 µg/mL (≈ 19.3 µM) and an MBC (Bacillus subtilis; [19]) of 16 µg/mL (≈ 77.2 µM). It also gave an MIC (Bacillus subtilis; [19]) of 4 µg/mL (≈ 19.3 µM), an MBC (Bacillus subtilis; [20]) of 8 µg/mL (≈ 38.6 µM) and an MIC (Bacillus subtilis; [20]) of 4 µg/mL (≈ 19.3 µM). The MBC (Bacillus subtilis; [21]) was 8 µg/mL (≈ 38.6 µM), the MIC (Bacillus subtilis; [21]) was 4 µg/mL (≈ 19.3 µM) and the MBC (Bacillus subtilis; [22]) was 8 µg/mL (≈ 38.6 µM). For the same compound, the MIC (Bacillus subtilis; [22]) was 4 µg/mL (≈ 19.3 µM), the MBC (Bacillus subtilis; [23]) was 16 µg/mL (≈ 77.2 µM) and the MIC (Bacillus subtilis; [23]) was 4 µg/mL (≈ 19.3 µM). It also gave an MBC (Bacillus subtilis; [24]) of 16 µg/mL (≈ 77.2 µM), an MIC (Bacillus subtilis; [24]) of 8 µg/mL (≈ 38.6 µM) and an MBC (Bacillus subtilis; [25]) of 16 µg/mL (≈ 77.2 µM). For the same compound, the MIC (Bacillus subtilis; [25]) was 8 µg/mL (≈ 38.6 µM), the MBC (Bacillus subtilis; [26]) was 16 µg/mL (≈ 77.2 µM) and the MIC (Bacillus subtilis; [26]) was 8 µg/mL (≈ 38.6 µM). For the same compound, the MBC (Bacillus subtilis; [27]) was 8 µg/mL (≈ 38.6 µM), the MIC (Bacillus subtilis; [27]) was 4 µg/mL (≈ 19.3 µM) and the MBC (Bacillus subtilis; [28]) was 8 µg/mL (≈ 38.6 µM). The MIC (Bacillus subtilis; [28]) was 4 µg/mL (≈ 19.3 µM), the MBC (Bacillus subtilis; [29]) was 16 µg/mL (≈ 77.2 µM) and the MIC (Bacillus subtilis; [29]) was 4 µg/mL (≈ 19.3 µM). It also gave an MBC (Bacillus subtilis; [30]) of 16 µg/mL (≈ 77.2 µM), an MIC (Bacillus subtilis; [30]) of 4 µg/mL (≈ 19.3 µM) and an MBC (Bacillus subtilis; [31]) of 16 µg/mL (≈ 77.2 µM). It also gave an MIC (Bacillus subtilis; [31]) of 4 µg/mL (≈ 19.3 µM), an MBC (Bacillus subtilis; [32]) of 16 µg/mL (≈ 77.2 µM) and an MIC (Bacillus subtilis; [32]) of 4 µg/mL (≈ 19.3 µM). The MBC (Bacillus subtilis; [33]) was 16 µg/mL (≈ 77.2 µM), the MIC (Bacillus subtilis; [33]) was 4 µg/mL (≈ 19.3 µM) and the sporicidal activity [3] was “killed A. fumigatus exospores at 24 hrs but not 6 hrs”. For the same compound, the MIC (Salmonella typhimurium; Salmonella enterica, TYPHIMURIUM, 24 h) was 256 µg/mL (≈ 1240 µM), the MMC (Salmonella typhimurium; Table 9, 35° C., 24 hours) was >512 µg/mL and the “Log reduction in viable count” value (Candida albicans [4]; 128 μg/mL, in 6h) was 2 in 6h. For the same compound, the “Log reduction in viable count” value (Candida albicans [4]; 256 μg/mL, in 4h) was 6 in 4h, the “Log reduction in viable count” value (Candida albicans [4]; 512 μg/mL, at 2 h) was 5.5 at 2 h and the “reduction (kill)” value (Candida albicans [4]; within 2 hrs at 512 μg/mL) was > 99.999%. The “reduction (kill)” value (Candida albicans [4]; within 4 hours at 256 μg/mL) was > 99.999%, the “Suppression of Growth (+/−)” value [5] was “+” and the MIC (Candida albicans [6]; [34]) was 4 µg/mL (≈ 19.3 µM). For the same compound, the MIC (Candida albicans [6]; [35]) was 4 µg/mL (≈ 19.3 µM), the “7-Day MIC Range” value (Candida albicans [6]; [36]) was 16 to 64 µg/mL and the “Minimal % Compound (1) giving complete inhibition of test culture” value (Candida albicans [7]) was 0.5%. The MMC (F. chlamydosporum) was 8 µg/mL, the MIC (F. chlamydosporum; read-out: MIC) was 8 µg/mL (≈ 38.6 µM) and the “pH (in 50% v./v. ethanol)” value was “approximately neutral”. For the same compound, the “Suppression of Growth (+/−)” value [8] was “+”, the MIC (Aspergillus fumigatus; Table 20, […], after 12 weeks continuous exposure, read-out: MIC Final) was 8 µg/mL (≈ 38.6 µM) and the MIC (Aspergillus fumigatus; Table 20, […], parent strain, read-out: MIC Initial) was 8 µg/mL (≈ 38.6 µM). The MIC (Aspergillus fumigatus; [35]) was 8 µg/mL (≈ 38.6 µM), the “7-Day MIC Range” value (Aspergillus fumigatus; to Wk 5) was 8-32 to Wk 5 μg/mL and the “Suppression of Growth (+/−)” value [9] was “+”. The “Log reduction in viable count” value (Enterococcus faecalis) was 0.6 at 9 h, the MIC (Fusarium graminearum; Fusarium graminearum) was 4 µg/mL (≈ 19.3 µM) and the MMC (Fusarium graminearum; Table 16, M38-P, 35° C.) was 8 µg/mL. It also gave an MMC [10] of 32 µg/mL, an MMC ([10]; 35° C., 24 hours) of 32 µg/mL and an MIC ([10]; Enterococcus faecalis, 35° C., 24 hours) of 32 µg/mL (≈ 154 µM). For the same compound, the “Suppression of Growth (+/−)” value [11] was “+”, the MMC (Trichophyton rubrum) was 256 µg/mL and the MIC (Trichophyton rubrum; Trichophyton rubrum, 168 h) was 1 µg/mL (≈ 4.83 µM). The MMC (Pseudoallescheria boydii) was 4 µg/mL, the MIC (Pseudoallescheria boydii; read-out: MIC) was 2 µg/mL (≈ 9.65 µM) and the “Diameter of zone of Growth inhibition” value (Acinetobacter B-681; Concentration in disc 0.1%) was 32# mm. For the same compound, the “Diameter of zone of Growth inhibition” value (Acinetobacter B-681; Concentration in disc 1.0%) was 35# mm, the “Diameter of zone of Growth inhibition” value (Acinetobacter B-681; Concentration in disc 2.0%) was 38# mm and the “Suppression of Growth (+/−)” value (Shigella sonnei B-720) was “+”. The “Number of microbes: Growth” value (Geotrichum M-158; 0.1%) was 0, the “Number of microbes: Retardation” value (Geotrichum M-158; 0.1%) was 10^4 and the “Number of microbes: Growth” value (Geotrichum M-158; 0.5%) was 0. The “Number of microbes: Retardation” value (Geotrichum M-158; 0.5%) was 10^5, the “Number of microbes: Growth” value (Geotrichum M-158; 2.0%) was 0 and the “Number of microbes: Retardation” value (Geotrichum M-158; 2.0%) was 10^5. For the same compound, the MIC (Proteus vulgaris; [34]) was 128 µg/mL (≈ 618 µM), the MIC (Proteus vulgaris; [35]) was 128 µg/mL (≈ 618 µM) and the “7-Day MIC Range” value (Proteus vulgaris; [36]) was 64 to 256 µg/mL. For the same compound, the MIC ([12]; Table 9, 35° C., 24 hours) was > 512 µg/mL, the MIC ([12]; Table 17, 2 or 3 replicates) was > 512 µg/mL and the MMC ([12]; Table 9, 35° C., 24 hours) was >512 µg/mL. For the same compound, the MMC ([12]; Table 17, 2 or 3 replicates) was >512 µg/mL.
